Laboratory results reported in PMC2248166, “Quantitative peptide binding motifs for 19 human and mouse MHC class I molecules derived using positional scanning combinatorial peptide libraries” (Immunome Research, 2008).

What was measured:
HLA B*0801 = HLA B*0801 (Homo sapiens, UniProt P01889, A93T/A95T/D138N/E176V/E187T/K202T/Q94N/R180D/S35A/V36M/Y33D/Y91F); experiment: biochemical; assay type: binding
HLA B*5101 = HLA B*5101 (Homo sapiens, UniProt P01889, A329T/A93T/A95T/C349S/D138N/D201E/D98Y/E187L/E204Q/E69T/G107R/I218V/K202T/L105A/L119W/N104I/Q94N/R106L/R155S/R180L/S101N/S121T/S35A/S48A/V306I/V36M/Y195H/Y91F); assay type: binding
H-2 D^b = H-2 D^b (Mus musculus, UniProt P01899); assay type: binding
Chain of H-2 D^b (P01887 21-119): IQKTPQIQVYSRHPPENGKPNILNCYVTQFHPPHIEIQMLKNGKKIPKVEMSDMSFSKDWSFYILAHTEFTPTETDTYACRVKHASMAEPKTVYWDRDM
Chain of H-2 D^b (P01899 25-362): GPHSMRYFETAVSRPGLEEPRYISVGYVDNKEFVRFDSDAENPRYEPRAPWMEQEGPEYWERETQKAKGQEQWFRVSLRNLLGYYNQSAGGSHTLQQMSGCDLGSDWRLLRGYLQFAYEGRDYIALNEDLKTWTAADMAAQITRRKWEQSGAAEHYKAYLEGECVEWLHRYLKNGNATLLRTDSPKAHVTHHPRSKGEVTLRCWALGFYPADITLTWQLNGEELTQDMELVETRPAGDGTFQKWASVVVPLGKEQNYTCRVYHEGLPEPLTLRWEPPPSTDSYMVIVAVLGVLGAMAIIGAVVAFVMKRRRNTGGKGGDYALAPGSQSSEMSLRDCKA

HLA A*3201 = HLA A*3201 (Homo sapiens, UniProt P04439, A270S/D101S/D185E/E176V/E277Q/F133L/G103R/G107R/G231S/H175R/I121M/I218V/I322F/K168Q/L105A/L300P/L318F/M331R/P208A/P217A/Q94H/R106L/R138Q/S129P/T104I/T323A/T345S/V100E/V321M/V358M); experiment: biochemical; assay type: binding
HLA B*5801 = HLA B*5801 (Homo sapiens, UniProt P01889, A329T/C349S/D201E/D98Y/E176V/E187L/E204Q/E69T/G107R/I218V/I90N/K202T/L105A/L119I/N104I/N87E/Q89R/Q94S/R106L/R155S/R180L/R86G/S101N/S121R/S35A/S48A/T118I/V127L/V306I/V36M/Y140S/Y91M); assay type: binding
HLA B*1503 = HLA B*1503 (Homo sapiens, UniProt P01889, A329T/A93T/A95T/C349S/D201E/D98Y/E187L/E204Q/K202T/N87E/Q94N/R155S/R180L/S121R/S35A/V306I/V36M/Y140S/Y91S); experiment: biochemical; assay type: binding
HLA B*5401 = HLA B*5401 (Homo sapiens, UniProt P01889, A329T/C349S/D138N/D201E/E176V/E187T/E204Q/E69G/I76V/K202T/L119W/R155S/R180L/S121T/S35A/S48A/V127L/V306I/V36M/Y140L); assay type: binding
H-2 K^k = H-2 K^k (Mus musculus, UniProt P04223); assay type: binding
Chain of H-2 K^k (P01887 21-119): as the sequence (P01887 21-119) above
Chain of H-2 K^k (P04223 22-369): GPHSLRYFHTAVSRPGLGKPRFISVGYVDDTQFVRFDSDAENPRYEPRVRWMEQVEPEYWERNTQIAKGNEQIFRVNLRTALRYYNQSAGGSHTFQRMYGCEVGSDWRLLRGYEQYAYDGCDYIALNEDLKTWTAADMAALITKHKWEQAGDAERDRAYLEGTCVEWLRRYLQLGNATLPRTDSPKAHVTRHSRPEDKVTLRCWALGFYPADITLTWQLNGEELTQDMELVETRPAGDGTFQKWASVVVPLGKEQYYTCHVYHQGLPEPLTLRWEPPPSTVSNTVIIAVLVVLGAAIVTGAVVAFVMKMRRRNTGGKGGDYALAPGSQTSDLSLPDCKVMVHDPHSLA

HLA B*2705 = HLA B*2705 (Homo sapiens, UniProt P01889, D138H/D201E/E176V/E204Q/G107R/H137Y/K202T/N104T/N87E/Q56L/Q94K/R106L/R155S/R180L/S101D/S121N/S48T/Y140D/Y33H/Y91C); assay type: binding; settings: positional scanning combinatorial 9-mer library; normalized to 1.0 for the best residue at each position
HLA A*3001 = HLA A*3001 (Homo sapiens, UniProt P04439, D140H/D185E/E176W/F33S/G80R/H175R/K168Q/R138E/R41S); experiment: biochemical; assay type: binding
H-2 D^d = H-2 D^d (Mus musculus, UniProt P01900); assay type: binding
Chain of H-2 D^d (P01900 whole entry, looked up): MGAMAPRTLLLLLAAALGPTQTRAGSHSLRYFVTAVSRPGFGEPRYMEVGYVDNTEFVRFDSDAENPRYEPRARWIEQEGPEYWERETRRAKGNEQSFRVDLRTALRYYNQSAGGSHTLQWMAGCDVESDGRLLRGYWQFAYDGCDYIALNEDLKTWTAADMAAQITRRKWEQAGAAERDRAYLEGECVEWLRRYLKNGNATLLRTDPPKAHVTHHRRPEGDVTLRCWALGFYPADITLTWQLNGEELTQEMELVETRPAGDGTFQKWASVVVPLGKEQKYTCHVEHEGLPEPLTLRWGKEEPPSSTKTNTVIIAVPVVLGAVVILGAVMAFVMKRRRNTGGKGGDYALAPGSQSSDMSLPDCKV

HLA B*1501 = HLA B*1501 (Homo sapiens, UniProt P01889, A329T/A93T/A95T/C349S/D201E/D98Y/E187L/E204Q/E69M/E70A/K202T/N87E/Q94N/R155S/R180W/S121R/S35A/S48A/V306I/V36M/Y140S/Y91S); experiment: biochemical; assay type: binding
HLA B*5802 = HLA B*5802 (Homo sapiens, UniProt P01889, A329T/C349S/D201E/D98Y/E176V/E187L/E204Q/E69T/G107R/I218V/I90N/K202T/L105A/N104I/N87E/Q89R/Q94S/R106L/R155S/R180L/R86G/S101N/S121W/S35A/S48A/V127L/V306I/V36M/Y140S/Y91M); assay type: binding
HLA A*0201 = HLA A*0201 (Homo sapiens, UniProt P04439, D140Y/D185E/D98H/E176V/E277Q/G131W/G231S/I119V/I121R/I166T/I218V/L300P/L318F/N151K/N90K/P208A/P217A/Q86G/Q94H/R138H/R169H/T345S); settings: positional scanning combinatorial 9-mer library; normalized to 1.0 for the best residue at each position
HLA B*5301 = HLA B*5301 (Homo sapiens, UniProt P01889, A329T/A93T/A95T/C349S/D201E/D98Y/E176V/E187L/E204Q/E69T/G107R/I218V/K202T/L105A/L119I/N104I/Q94N/R106L/R155S/R180L/S101N/S121R/S35A/S48A/T118I/V127L/V306I/V36M/Y140S/Y91F); assay type: binding
HLA B*0702 = HLA B*0702 (Homo sapiens, UniProt P01889); assay type: binding; settings: positional scanning combinatorial 9-mer library; normalized to 1.0 for the best residue at each position
HLA B*3501 = HLA B*3501 (Homo sapiens, UniProt P01889, A329T/A93T/A95T/C349S/D201E/D98Y/E176V/E187L/E204Q/E69T/I218V/K202T/L119I/Q94N/R155S/R180L/S121R/S35A/S48A/T118I/V127L/V306I/V36M/Y140S/Y91F); assay type: binding
HLA A*6802 = HLA A*6802 (Homo sapiens, UniProt P04439, A269V/D140Y/D185E/E176V/E277Q/E87N/F33Y/G231S/I121R/I166T/I218V/L180W/L300P/L318F/N151K/P208A/P217A/Q86R/R138H/R169H/S129P/T345S/V36M); assay type: binding

| Sequence | Normalized average relative binding affinity (ARB), HLA B*0801 (HLA B*0801) | Normalized average relative binding affinity (ARB), HLA B*5101 (HLA B*5101) | Normalized average relative binding affinity (ARB), H-2 Db (H-2 D^b) | Normalized average relative binding affinity (ARB), HLA A*3201 (HLA A*3201) | Normalized average relative binding affinity (ARB), HLA B*5801 (HLA B*5801) | Normalized average relative binding affinity (ARB), HLA B*1503 (HLA B*1503) | Normalized average relative binding affinity (ARB), HLA B*5401 (HLA B*5401) | Normalized average relative binding affinity (ARB), H-2 Kk (H-2 K^k) | Normalized average relative binding affinity (ARB), HLA B*2705 (HLA B*2705) | Normalized average relative binding affinity (ARB), HLA A*3001 (HLA A*3001) | Normalized average relative binding affinity (ARB), H-2 Dd (H-2 D^d) | Normalized average relative binding affinity (ARB), HLA B*1501 (HLA B*1501) | Normalized average relative binding affinity (ARB), HLA B*5802 (HLA B*5802) | Normalized average relative binding affinity (ARB), HLA A*0201 (HLA A*0201) | Normalized average relative binding affinity (ARB), HLA B*5301 (HLA B*5301) | Normalized average relative binding affinity (ARB), HLA B*0702 (HLA B*0702) | Normalized average relative binding affinity (ARB), HLA B*3501 (HLA B*3501) | Normalized average relative binding affinity (ARB), HLA A*6802 (HLA A*6802) |
| --- | --- | --- | --- | --- | --- | --- | --- | --- | --- | --- | --- | --- | --- | --- | --- | --- | --- | --- |
| MXXXXXXXX [3064.0011] | 0.79 | 0.32 | 0.18 | 0.76 | 0.70 | 0.40 | 1.0 | 0.78 | 0.44 | 0.37 | 0.75 | 0.89 | 0.21 | 0.25 | 0.26 | 0.56 | 0.90 | 0.75 |
| NXXXXXXXX [3064.0012] | 0.43 | 0.19 | 0.31 | 0.13 | 0.056 | 0.14 | 0.12 | 0.80 | 0.095 | 0.065 | 0.19 | 0.22 | 0.063 | 0.067 | 0.027 | 0.15 | 0.29 | 0.24 |
| PXXXXXXXX [3064.0013] | 0.012 | 0.037 | 0.030 | 0.055 | 0.030 | 0.018 | 0.0097 | 0.052 | 0.022 | 0.0059 | 0.095 | 0.059 | 0.059 | 0.0032 | 0.0038 | 0.029 | 0.023 | 0.0050 |
